{"source": "patent US7855076B2", "about": "“Use of discoidin domain receptor 1 (DDR1) and agents that affect the DDR1/collagen pathway” (The United States of America as represented by the …, priority 2002, dated 2010)", "format_in_all_cases": "cell-based, human", "key": {"NF-κB": {"test_system": "NF-κB", "test": "NF-κB luciferase reporter assay in THP-1 cells", "settings": "DDR1b-overexpressing cells", "method": "For the results shown in FIG. 7A, mock-transduced or DDR1b-overexpressing THP-1 cells were transfected with 10 μg of the NF-κB-Luc plasmid and 5 μg of pSV-β-galactosidese plasmid DNA (Promega, Madison, Wis.) per 100-mm tissue culture plate using Effectene Transfection Reagent (Qiagen, Valencia, Calif.), according to the manufacture's protocol. After a 12-hour incubation, cells were rinsed with phosphate buffered saline (PBS) and then incubated with 10 nM PMA on collagen-coated plates in the presence of absence of SB203580, PD98059, CAPE or dimethlysulfoxide (DMSO) for another 12 hours. Cells were collected and lysed using the Reporter Lysis Buffer (Promega, Madison, Wis.), and luciferase activity and β-galactosidase activities were measured according to the protocol provided by the manufacturer. The resulting luciferase activity was corrected based on the β-galactosidase activity in the same cell extract. For the results shown in FIG. 7B, DDR1b-overexpressing THP-1 cells were transfected with 10 μg of the pGLM-ENH, or pGLM-MA1MA2 (Ueda et al., J. Bio. Chem. 272: 31092-9, 1997) and 5 μg of pSV-β-galactosidese plasmid DNA (Promega, Madison, Wis.) per 100-mm tissue culture plate using Effectene Transfection Reagent (Qiagen, Valencia, Calif.) according to the manufacture's protocol. […] Cells were collected and lysed using the Reporter Lysis Buffer (Promega, Madison, Wis.), and luciferase activity and β-galactosidase activities were measured according to the protocol provided by the manufacturer. […]\nMock-transduced or DDR1b-overexpressing THP-1 cells were transfected with 10 μg of the NF-κB-Luc plasmid, pGL-ENH, or pGL-MA1MA2 and 5 μg of pSV-β-galactosidase plasmid DNA (Promega, Madison, Wis.) per 100-mm tissue culture plate using Effectene Transfection Reagent (Qiagen, Valencia, Calif.) according to the manufacture's protocol. […] Luciferase activity and β-galactosidase activities were measured according to the protocol provided by the manufacturer. […]"}, "[1]": {"test_system": "monocyte-derived dendritic cells", "test": "Flow cytometry of CD80, CD83, CD86, HLA-DR on monocyte-derived DCs", "method": "Human PBMC were isolated from leukapheresis preparations obtained by the Blood Bank, Clinical Center, National Institutes of Health (Bethesda, Md.). The leukocyte-rich preparation was overlaid on Accu-prep in 50 ml tubes and the tubes were centrifuged at 800×g for 20 min at room temperature. PBMC fractions were collected, washed once with PBS at room temperature and twice with complete medium at 4° C. and resuspended in the same medium. Monocytes were further purified by using iso-osmotic Percoll gradient. At this stage, the purity of monocytes was higher than 90%. The cells (5×10^5/ml) were allowed to adhere to the surface of 6-well plates. After a 5 hour incubation at 37° C., non-adherent cells were removed, and remaining adherent cells were subjected to the DC (Baggiolini et al., Adv. Immunol. 55:97-179, 1993). Over 95% of the adherent cells were positive for CD14 by flow cytometry analysis. Monocytes were briefly resuspended at a concentration of 1×10^6 cells/ml and cultured in complete medium containing 50 ng/ml GM-CSF and 50 ng/ml IL-4. Cells were cultured for 7 days, with cytokine added every second day, to obtain a population of immature monocyte-derived dendritic cells (DC). For maturation, immature DC (iDC) were treated with TNF-α (50 ng/ml) from day 5 to day 7. Mouse monoclonal anti-DDR1 antibody (513) (5 μg/ml) was used to specifically activate DDR1. Unrelated mouse monoclonal IgM was used as a control.\nMonocytes were plated at a density of 5×10^6 cell/ml and incubated for 5 days in the presence of 50 ng/ml GM-CSF and 50 ng/ml IL-4. Cells were cultured for 7 days, with cytokine added every second day, to obtain a population of immature monocyte-derived DCs. For maturation, iDCs were incubated with TNF-α (50 ng/ml) from day 5 to day 7. For activation of DDR1 on DCs, the cells were incubated in the presence of either agonistic anti-DDR1 IgM (513) or control IgM, and the expression of CD80, CD83, CD86, and HLA-DR was measured using a flow cytometer.\nA hundred thousand cells were resuspended in 50 μl of cold PBS containing 0.1% sodium azide, […] bovine serum albumin (BSA) and 200 μg/ml of human IgG, and then incubated for 10 minutes on ice. Subsequently, the cells were incubated with antibodies against CD80, CD83, CD86 or HLA-DR for 15 minutes on ice, and followed by washing with PBS. After washing, cells were incubated with FITC-conjugated goat anti-mouse IgG for 15 minutes on ice. At the end of the incubation, PI was added to 100 μM. Cells were washed by PBS, and subsequently analyzed on a FACscan (Becton Dickinson). Dead cells, determined by their PI-staining, were gated out. Results were processed using CellQuest software (Becton Dickinson). For the experiments of p38 MAP kinase inhibition, iDC were pre-treated with SB203580, or DMSO for 30 minutes, and then cultured with TNF-α alone, TNF-α plus 513 agonistic anti-DDR1 IgM (5 μg/ml), or TNF-α plus control IgM (5 μg/ml). These experiments were repeated with cells from three different donors."}, "[2]": {"test_system": "monocyte-derived dendritic cells", "test": "Allogeneic MLR with monocyte-derived DCs", "method": "FIG. 9 is a graph showing the effect of DDR1 antibody on the antigen presenting capacity of DCs.\nThe most important function of DCs is to present antigens to naïve T cells. […] Human T cells were purified from PBMCs of healthy donors by magnetic separation using CD3^+microbeads (Miltenyi Biotech Inc., Auburn, Calif.). T cells (1×10^5) were placed in 96-well plates with increasing numbers of DC (5×10^2−1×10^4 cells) in 200 μl culture medium. On day four, 1 μCi/well of [^3H]thymidine was added, and incorporation of radioactivity was measured after 15 hours of incubation. All tests were performed in triplicate."}, "[3]": {"settings": "iDC pre-treated, TNF-α-induced maturation with agonistic anti-DDR1 IgM or control IgM"}, "[4]": {"settings": "DC maturation induced with TNF-α 50 ng/ml"}}, "data": [{"compound": "C[S+]([O-])c1ccc(-c2nc(-c3ccncc3)c(-c3ccc(F)cc3)[nH]2)cc1", "note": "(stereo not drawn) [SB203580]", "values": [{"measurement": "increase in luciferase activity induced by PMA plus collagen", "setting": "NF-κB; 12 hours", "value": "dose-dependently inhibited"}, {"measurement": "expression of CD80", "setting": "[1]; [3]", "value": "almost completely inhibited"}, {"measurement": "expression of CD83", "setting": "[1]; [3]", "value": "almost completely inhibited"}, {"measurement": "expression of CD86", "setting": "[1]; [3]", "value": "almost completely inhibited"}, {"measurement": "expression of HLA-DR", "setting": "[1]; [3]", "value": "almost completely inhibited"}, {"measurement": "capacity to activate allogeneic MLR of TNF-α-induced DCs and its up-regulation by DDR1 activation", "setting": "[2]", "value": "almost completely abrogated"}]}, {"compound": "TNF-α", "values": [{"measurement": "expression of CD80", "setting": "[1]; [4]", "value": "up-regulated"}, {"measurement": "expression of CD83", "setting": "[1]; [4]", "value": "up-regulated"}, {"measurement": "expression of CD86", "setting": "[1]; [4]", "value": "up-regulated"}, {"measurement": "expression of HLA-DR", "setting": "[1]; [4]", "value": "up-regulated"}, {"measurement": "allogeneic MLR by induced mDCs", "setting": "[2]; cell number-dependent", "value": "markedly activated"}]}, {"compound": "collagen", "values": [{"measurement": "luciferase activity", "setting": "NF-κB; PMA plus collagen, NF-κB-Luc plasmid", "value": "markedly increased"}]}]}
